From patent US20250221966A1, “RXFP1 AGONISTS” (BRISTOL-MYERS SQUIBB COMPANY, priority 2021, published 2025)
pEC50: −log10 of the molar value. Read-outs that look alike come from different tables or passages of the source.

Target: T1, human RXFP1 (Homo sapiens, UniProt Q9HBX9)
T1 construct: expressed in transfected cells
T1 sequence (Q9HBX9 1-757): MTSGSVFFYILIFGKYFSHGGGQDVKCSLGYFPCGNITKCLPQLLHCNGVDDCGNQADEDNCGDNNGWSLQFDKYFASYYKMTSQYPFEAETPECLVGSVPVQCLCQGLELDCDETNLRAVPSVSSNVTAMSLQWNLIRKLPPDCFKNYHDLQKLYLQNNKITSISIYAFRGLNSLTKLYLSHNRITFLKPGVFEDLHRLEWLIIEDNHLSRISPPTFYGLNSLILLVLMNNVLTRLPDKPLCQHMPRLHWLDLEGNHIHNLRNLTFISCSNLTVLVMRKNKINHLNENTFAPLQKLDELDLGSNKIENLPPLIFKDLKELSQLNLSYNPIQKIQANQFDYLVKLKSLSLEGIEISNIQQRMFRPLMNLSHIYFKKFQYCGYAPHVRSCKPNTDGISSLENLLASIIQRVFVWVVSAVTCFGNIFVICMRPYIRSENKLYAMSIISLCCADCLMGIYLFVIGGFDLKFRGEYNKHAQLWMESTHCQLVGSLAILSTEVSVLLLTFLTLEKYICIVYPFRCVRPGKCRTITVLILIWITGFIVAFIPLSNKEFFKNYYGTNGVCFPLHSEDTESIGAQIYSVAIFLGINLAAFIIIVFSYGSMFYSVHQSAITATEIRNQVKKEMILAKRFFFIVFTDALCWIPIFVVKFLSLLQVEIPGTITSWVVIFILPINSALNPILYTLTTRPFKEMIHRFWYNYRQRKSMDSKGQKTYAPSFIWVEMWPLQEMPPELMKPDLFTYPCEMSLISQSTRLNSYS
Test: RXFP1 cAMP assay (hRXFP1 HEK293 cAMP assay, HTRF)
Format: cell-based
How it was run: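 HEK293 cells stably expressing human RXFP1 (1500 cells/well) in HBSS/20 mM HEPES/0.05% BSA/0.5 mM IBMX. Compounds were tested at 0.010 nM–50 μM final (2% DMSO) for 30 min at room temperature. cAMP was measured by HTRF and values derived by 4-parameter logistic fit.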

[1] = HEK293 cells stably expressing human RXFP1, 30 min at room temperature, read-out: cAMP hRXFP1 HEK293 Assay EC50

| pEC50 [1] | pEC50 (cAMP hRXFP1 HEK293 Assay EC50, HEK293 cells stably expressing human RXFP1, 30 min at room temperature) | SMILES |
| --- | --- | --- |
| 8.31 | – | O=C(N[C@H]1[C@@H](C(=O)Nc2ccc(F)c(C(F)(F)F)c2)[C@H]2CC[C@@H]1/C2=C\C1CC1)c1cc(C2=NOC3CC(CO)CC23)ccc1F (single isomer, unassigned) [compound 473] |
| 5.71 | – | O=C(O)c1ccc(F)c(-c2ccc(OCCN3CCOCC3)c(C(=O)N[C@H]3[C@@H](C(=O)Nc4ccc(F)c(C(F)(F)F)c4)[C@H]4CC[C@@H]3/C4=C\C(F)(F)F)c2)c1 [Example 320, 6-fluoro-3′-(((1R,2R,3S,4R,Z)-3-((4-fluoro-3-(trifluoromethyl)phenyl)carbamoyl)-7-(2,2,2-trifluoroethylidene)bicyclo[2.2.1]heptan-2-yl)carbamoyl)-4′-(2-morpholinoethoxy)-[1,1′-biphenyl]-3-carboxylic acid] |
| 6.43 | – | COCCN1CCCC1c1ccc(OC)c(C(=O)N[C@@H]2C3CCC(C3=CC3CC3)[C@@H]2C(=O)Nc2ccc(F)c(C(F)(F)F)c2)c1 (stereo partly shown) [compound 666] |
| 6.68 | – | COc1cc(F)c(F)cc1C(=O)N[C@@H]1C2CCC(/C2=C/c2ccco2)[C@@H]1C(=O)Nc1ccc(F)c(C(F)(F)F)c1 (stereo partly shown) [compound 123] |
| 6.25 | – | COc1ccc(C2=NOC3COCC23)cc1C(=O)N[C@H]1[C@@H](C(=O)NC2CCOC(C)(C)C2)[C@H]2CC[C@@H]1/C2=C\C1CC1 (single isomer, unassigned) [compound 679] |
| 9.05 | – | COc1ccc(-c2cc(S(=O)(=O)NC(C)(C)C)ccc2F)cc1C(=O)N[C@H]1[C@@H](C(=O)Nc2ccc(F)c(C(F)(F)F)c2)[C@H]2CC[C@@H]1/C2=C\C1CCCC1 [compound 958] |
| 8.80 | – | COc1ccc(C2=NO[C@H]3C[C@H](CO)CN23)cc1C(=O)N[C@H]1[C@@H](C(=O)Nc2ccc(F)c(C(F)(F)F)c2)[C@H]2CC[C@@H]1/C2=C\C1CCCC1 [compound 816] |
| 7.52 | – | COc1ccc(C2=NOC3COCC23)cc1C(=O)N[C@H]1[C@@H](C(=O)N[C@@H](C)C(C)(C)C)[C@H]2CC[C@@H]1/C2=C\C1CC1 (stereo partly shown) [compound 541] |
| 7.08 | – | COc1ccc(C2=NOC3COCC23)cc1C(=O)N[C@H]1[C@@H](C(=O)NC2CCC(C(F)(F)F)C2)[C@H]2CC[C@@H]1/C2=C\C1CC1 (single isomer, unassigned) [Example 589] |
| 8.57 | – | COc1ccc(C2=NOC3CC(CO)CC23)cc1C(=O)N[C@H]1[C@@H](C(=O)N[C@H](C)C2(C)CC2)[C@H]2CC[C@@H]1/C2=C\C1CC1 (stereo partly shown) [compound 766] |
| 6.89 | – | COc1ccc(-c2ccnc(N3CCOCC3)c2F)cc1C(=O)N[C@H]1[C@@H](C(=O)Nc2ccc(F)c(C(F)(F)F)c2)[C@H]2CC[C@@H]1C2=C(C)C [compound 85] |
| 5.72 | – | COc1ccc(Br)cc1C(=O)N[C@@H]1C2CCC(/C2=C\c2ccccc2)[C@@H]1C(=O)Nc1ccc(F)c(C(F)(F)F)c1 (stereo partly shown) [Example 78] |
| 9.70 | – | COc1ccc(-c2cccc3c2ccn3CC(C)(C)O)cc1C(=O)N[C@@H]1C2CCC(/C2=C/C2CCCC2)[C@@H]1C(=O)Nc1ccc(F)c(C(F)(F)F)c1 (stereo partly shown) [compound 895] |
| 7.70 | – | COc1ccc(C2=NOC(CO)C2)cc1C(=O)N[C@@H]1C2CCC(/C2=C/C2CC2)[C@@H]1C(=O)Nc1ccc(F)c(C(F)(F)F)c1 (stereo partly shown) [compound 381] |
| 6.82 | – | COc1ccc(-c2cc(C(=O)N3CC[C@@H](O)C3)on2)cc1C(=O)N[C@H]1[C@@H](C(=O)Nc2ccc(F)c(C(F)(F)F)c2)[C@H]2CC[C@@H]1/C2=C\C1CC1 [compound 617] |
| 5.85 | – | COc1ccc(-n2nccc2C(=O)O)cc1C(=O)N[C@@H]1C2CCC(/C2=C/C(F)(F)F)[C@@H]1C(=O)Nc1ccc(F)c(C(F)(F)F)c1 (stereo partly shown) [compound 345] |
| 7.52 | – | COc1cc(F)c(F)cc1C(=O)N[C@@H]1C2CCC(/C2=C/C2=CCCCC2)[C@@H]1C(=O)Nc1ccc(F)c(C(F)(F)F)c1 (stereo partly shown) [compound 35] |

| pEC50 [1] | pEC50 (cAMP hRXFP1 HEK293 Assay EC50, HEK293 cells stably expressing human RXFP1, 30 min at room temperature) | SMILES |
| --- | --- | --- |
| – | 7.18 | COc1ccc(-c2ccc(C(=O)O)cc2)cc1C(=O)N[C@H]1[C@@H](C(=O)Nc2ccc(F)c(C(F)(F)F)c2)[C@H]2CC[C@@H]1C2=C(C)C [compound 83] |
| 5.68 | – | COc1ccc(-c2nn[nH]n2)cc1C(=O)N[C@@H]1C2CCC(C2=C(C)C)[C@@H]1C(=O)Nc1ccc(F)c(C(F)(F)F)c1 (stereo partly shown) [Example 144] |
| 7.42 | – | COc1ccc(C2=NOC(C(C)O)C2)cc1C(=O)N[C@H]1[C@@H](C(=O)Nc2ccc(F)c(C(F)(F)F)c2)[C@H]2CC[C@@H]1/C2=C\C1CC1 (single isomer, unassigned) [compound 554] |
| 8.06 | – | COc1ccc(-c2cccc(C3=NOC4CC(O)CC34)c2)cc1C(=O)N[C@H]1[C@@H](C(=O)Nc2ccc(F)c(C(F)(F)F)c2)[C@H]2CC[C@@H]1/C2=C\C1CC1 (stereo partly shown) [compound 902] |
| 6.39 | – | COc1cc(F)c(F)cc1C(=O)N[C@@H]1[C@@H]2CCC(/C2=C/c2ccoc2)[C@@H]1C(=O)Nc1ccc(F)c(C(F)(F)F)c1 [Example 12] |
| 6.01 | – | COc1ccc(N2CC(=O)NC2=O)cc1C(=O)N[C@H]1[C@@H](C(=O)Nc2ccc(F)c(C(F)(F)F)c2)[C@H]2CC[C@@H]1/C2=C\C1CC1 [compound 697] |
| 9.05 | – | COc1ccc(-c2cc(C3=NOC(C(=O)O)C3)ccc2F)cc1C(=O)N[C@H]1[C@@H](C(=O)Nc2ccc(F)c(C(F)(F)F)c2)[C@H]2CC[C@@H]1/C2=C\C1CCCC1 (stereo partly shown) [compound 946] |
| 8.74 | – | COc1ccc(-c2cc(C(COC(=O)Nc3ccccc3)C(F)(F)F)ccc2F)cc1C(=O)N[C@H]1[C@@H](C(=O)Nc2ccc(F)c(C(F)(F)F)c2)[C@H]2CC[C@@H]1/C2=C\C1CC1 (stereo partly shown) [compound 875] |
| 8.60 | – | COc1c(F)cc(C2=NOC(C)(CO)C2)cc1C(=O)N[C@H]1[C@@H](C(=O)N[C@H](C)C2(C)CC2)[C@H]2CC[C@@H]1/C2=C\C1CC1 (stereo partly shown) [compound 744] |
| 7.27 | – | COc1ccc(C2=NOC(C(=O)O)C2)cc1C(=O)N[C@@H]1C2CCC(/C2=C/C(F)(F)F)[C@@H]1C(=O)Nc1ccc(F)c(C(F)(F)F)c1 (stereo partly shown) [compound 389] |
| 8.48 | – | COc1ccc(C2=NO[C@H]3C[C@H](CO)C[C@@H]23)cc1C(=O)N[C@H]1[C@@H](C(=O)Nc2ccc(F)c(C(F)(F)F)c2)[C@H]2CC[C@@H]1/C2=C\C1C[C@@H](F)[C@@H](F)C1 (stereo partly shown) [compound 828] |
| 8.30 | – | COc1ccc(C2=NO[C@@H]3[C@@H](O)CCN23)cc1C(=O)N[C@H]1[C@@H](C(=O)Nc2ccc(F)c(C(F)(F)F)c2)[C@H]2CC[C@@H]1/C2=C\C1CC1 [compound 857] |
| 8.34 | – | COc1ccc(C2=NOC3CC(CO)CC23)cc1C(=O)N[C@H]1[C@@H](C(=O)Nc2ccc(F)c(C(F)(F)F)c2)[C@H]2CC[C@@H]1/C2=C\c1ccncn1 (stereo partly shown) [compound 809] |
| 5.99 | – | COc1ccc(C2=NC[C@H]3CCCN23)cc1C(=O)N[C@H]1[C@@H](C(=O)Nc2ccc(F)c(C(F)(F)F)c2)[C@H]2CC[C@@H]1/C2=C\C1CC1 [Example 699] |
| 8.70 | – | COc1c(F)cc(-c2cc([C@H](OC(=O)NC3CCC3)C(F)(F)F)ccc2F)cc1C(=O)N[C@H]1[C@@H](C(=O)N[C@H](C)C2(C)CC2)[C@H]2CC[C@@H]1/C2=C\C1CC(F)(F)C1 [compound 970] |
| 8.30 | – | COc1ccc(-c2cc(C(CO)NC(C)=O)ccc2F)cc1C(=O)N[C@@H]1C2CCC(/C2=C/C2CC2)[C@@H]1C(=O)Nc1ccc(F)c(C(F)(F)F)c1 (stereo partly shown) [Example 172] |
| 6.72 | – | COc1ccc(C2=NOC3COCC23)cc1C(=O)N[C@H]1[C@@H](C(=O)NC(C)(C)C#N)[C@H]2CC[C@@H]1/C2=C\C1CC1 (stereo partly shown) [compound 633] |
